Data: patent publication US12378521B2, “Method for enhancing production of genetically engineered autologous T cells” (AMGEN INC., priority 2020, dated 2025)

Assays:
T cells [1] = test: T cell differentiation phenotyping (Tscm, Tcm, Tem) with 2-DG; format: cell-based, human
Protocol: Tscm, Tcm, Tem, and Tte subsets were analyzed by immunophenotyping based on their expression of CD45RA, CD45RO, CD95, and CCR7.
2-DG was added to culture medium between Days 0 and 7 and the feed medi was replaced with non-2-DG media (Media 1) from Days 7-14. […] The T cells continued differentiation after 2-DG was perfused out from culture media and ended at a similar level of differentiation as T cells in non-2-DG media (Media 1).
(§1) T2 cells expressing Luciferase were pulsed with the peptide recognized by the engineered TCR or with DMSO for 4 hours and the cells were washed before setting up a co-culture assay with 20,000 total T cells at a 1:1 (E:T) ratio. (A) 48 hours later, the luciferase signal was measured using the Steady Glo® Luciferase Assay System (Promega). Specific cytotoxicity was measured relative to the no peptide T2 cells cultured with the TCR T cells. (B) IFN-γ expression was measured using the AlphaLISA® detection kit (Perkin Elmer Waltham, MA) after 24 hours of co-culture. […] In addition, 24 hour accumulated release of IFN-γ was higher for T cells in non-2-DG media cross all concentration of peptide tested. […] Culture media containing 2-DG was used throughout the entire process (10 days).

T cells [2] = test: Transgene expression of cells expanded in media with 2-DG; format: cell-based, human
Protocol: On Day 1, the nucleated cells in each bag were counted and the amount of a lentiviral vector (comprising a polynucleotide encoding a TCR) corresponding to a MOI of 1 functional titer was diluted in 10 ml of Media 1 or Media 2 and placed in transfer bags. The transfer bags were sterile welded on XURI® Cellbag feed-lines and the lentivirus was then transferred into each of the bioreactors via gravity flow. The cells were incubated at 37° C., 5% CO2, gas flow rate of 0.1 L/min, and a rocking rate of 2 rpm at a 2° angle, for 20-24 hours.
In contrast, transgene expression of T cell in non-2-DG media decreased to 44.4% at high cell density ([…]).

T cells [3] = test: Leukocyte subsets in harvested T cells by immunophenotyping; format: cell-based, human; conditions: at harvest, both conditions
Protocol: Analysis of human B cells (CD19), monocytes (CD14), NK cells (CD56/16), NKT cells (CD3+CD56+), and T cells (CD3+Cd56−) were performed by immunophenotyping.

glycolysis = test: Glucose and lactate concentrations in culture (Cedex Bio Analyzer); format: cell-based, human
Protocol: Glucose and lactate were measured using Cedex Bio Analyzer (Roche, Indianapolis, IN). […] In addition, the effect of 2-DG was reversible as restoration of glucose (A) and lactate (B) levels was found after removal of 2-DG from the media from Day 7 to 14.

apheresed donor cells = test: Growth and viability of cells expanded in media supplemented with 2-DG; format: cell-based, human
Protocol: A portion of the washed apheresed donor cells comprising 1.2E9 nucleated cells were transferred into two transfer bags under the Dilute program using Sepax C-Pro processing system with the same CS-600.1 Kit (a new kit was not used). Into one bag was added about 8 ml of Media 1 (OpTmizer™ complete media containing 300 IU/mL rhIL-2 (ThermoFisher) and 2 mM 2-Deoxy-D-glucose (2-DG) (MilliporeSigma, Burlington, MA)). Into the second bag was added about 8 ml of Media 2 (OpTmizer™ complete media containing 300 IU/mL rhIL-2 (ThermoFisher)). To each was added 7.5 ml Immunocult™ anti-CD3/CD28/[…] (25 μl/ml media with cells, Stemcell Technologies). The amount of activator was determined based on the culture volume of 300 ml that was used in the culture/activation step below. The bags were incubated for 1 hour at room temperature to allow for saturation of antibody binding.
A 2 L XURI® SP Perf Cellbag bioreactor (GE Healthcare) was connected to a XURI® Cell Expansion System W25 and 300 ml Media 1 was added and allowed to equilibrate at 37° C., 5% CO2, gas flow rate of 0.1 L/min, and a rocking rate of 6 rpm at a 6° angle. […]
On Day 1, the nucleated cells in each bag were counted and the amount of a lentiviral vector (comprising a polynucleotide encoding a TCR) corresponding to a MOI of 1 functional titer was diluted in 10 ml of Media 1 or Media 2 and placed in transfer bags. […]
On Day 2, about half the volume of the culture media in each bioreactor bag was exchanged using three 50 ml bag washouts through feed-line and waste-line. Cell counts were taken daily and viable cell density (VCD), viability, dissolved oxygen, metabolites were determined as described above. Cell phenotypes were determined for all samples tested. […]
Total viable cell density, viability, glucose and lactate measurements were taken each day. Phenotyping was determined on Days 3, 5 and 7. […]
Total viable cell density, viability, glucose and lactate measurements were taken each day. Phenotyping was determined on Days 9 and 14.

T2 cells [4] = test: Potency assay: cytotoxicity against peptide-pulsed T2 cells expressing Luciferase; format: cell-based; conditions: peptide 1 μM, E:T 1:1, 48 hours
Protocol: as §1

T cells [5] = test: CD25 expression by cells expanded in media with 2-DG; format: cell-based, human
Source text: Even through CD25 expression by T cells in both conditions saturated at ±80%. T cells in 2-DG media retained CD25 better at Days[…] and 9 than the cells in the non-2-DG media. This may be due to the higher transgene expression and T cell yield for T cells generated in the 2-DG media.

T2 cells [6] = test: IFN-γ expression after co-culture with T2 cells (AlphaLISA); format: cell-based; conditions: 24 hours co-culture, all peptide concentrations tested
Protocol: as §1

O=CC[C@@H](O)[C@H](O)[C@H](O)CO [2-DG, 2-deoxy-D-glucose]
collected Tscm and Tcm subsets (T cells [1]; 2-DG throughout entire process (10 days), non-2-DG media 43%): 59%
Tscm subset (T cells [1]; Day 5, non-2-DG media 14%): 26%
combined Tcm and Tscm (T cells [1]; Day 7, non-2-DG media 56%): 86%
Transgene expression by T cells (T cells [2]; 2-DG media, non-2-DG media 54%): 56%
Transgene expression at high cell density (T cells [2]; cell density 35 billion cells/ml, non-2-DG media 44.4% at 25 billion cells/ml): 50.4%
CD3+ cell purity (T cells [3]): above 98%
Glucose concentration in spent media compared to non-2-DG condition (glycolysis; 2-DG media (Media 1)): higher glucose concentration
Lactate concentration in spent media compared to non-2-DG condition (glycolysis; 2-DG media (Media 1)): higher lactate concentration
Effect on glucose and lactate levels after removal of 2-DG (glycolysis; 2-DG removed from media Day 7 to 14): reversible
T cells yielded (apheresed donor cells; 2 mM 2-DG media, 14 days, without 2-DG 25 billion): 35 billion T cells
Viability compared with non-2-DG media (apheresed donor cells; Day 4 to Day 10): slightly higher viability
Overall viability (apheresed donor cells; both media conditions): above 70%
T2 cell lysis versus T cells from non-2-DG media (T2 cells [4]): No significant difference
CD25 expression in response to activation (T cells [5]; 2-DG media, non-2-DG media 46%): 32%
CD25 expression at saturation (T cells [5]; both conditions): ~80%
24 hour accumulated release of IFN-γ versus non-2-DG media (T2 cells [6]): lower level of IFN-γ
